Entries after “also recorded” stand apart in the source; their conditions may differ.
What was measured:
DHIV-infected NP cells = assay: HIV-1 reactivation by αCD3/CD28 in latently infected NP cells in the presence of signaling inhibitors (intracellular p24 Gag, flow cytometry); assay type: cell-based, human; settings: αCD3/CD28 restimulation 3 days; for inhibition of reactivation: inhibitor preincubated 2 hr
Protocol: (§1) To assess intracellular p24-gag expression, 5×10^5 cells were fixed and permeabilized with Citofix/Cytoperm during 30 min at 4° C. (BD Biosciences, San Diego, Calif.). Cells were washed with Perm/Wash Buffer (BD Biosciences) and stained with 1:40 dilution of anti-p24 antibody (AG3.0) in 100 μl of Perm/Wash Buffer during 30 min at 4° C. Cells were washed with Perm/Wash Buffer and incubated with 1:100 Alexa Fluor 488 goat anti-mouse IgG (H+L) in 100 μl of Perm/Wash Buffer during 30 min at 4° C. Cells were washed with Perm/Wash Buffer and samples were analyzed by flow cytometry. Forward versus side scatter plots were used to define the live population. In all the experiments, HIV p24-gag staining regions were set with uninfected cells treated in parallel.
2.5×10^5 cells were reactivated with beads coated with anti-CD3 and anti-CD28 during 72 hours in the presence of IL-2 (1 bead per cell).
For inhibition studies, cells were preincubated with the indicated inhibitor for 2 hr before stimulation (See Supplementary Methods on line for the concentration of each inhibitor or activator).
To begin to dissect potential signaling pathways leading to virus reactivation, a panel of known signaling inhibitors was tested. […] As a control, and to confirm expectations that the observed latent infections represent post-integration events, the integrase inhibitor, 118-D-24, was tested (FIG. 3A).
(§2) The concentration of each inhibitor or activator was as follows: 5 μM H-89, 50 μM PD98059, 250 nM Wortmannin, 15 nM bisindolylmaleimide II (BIM), 5 μM Rottlerin, 10 μM PP2, 50 μg/ml I kappa B Kinase Inhibitor Peptide, Cell-Permeable (IKK inh.) and 50 μM Forskolin (Calbiochem, San Diego, Calif.); 50 μM SB202190 and 125 ng/ml Leflunomide (Alexis Biochemicals, San Diego, Calif.); 10 nM Gö6976 and 1 μM Prostratin (LC Laboratories, Woburn, Mass.); 25 ng/ml TNF-α (Prepotech Inc.); 10 ng/ml phorbol 12-myristate 13-acetate, 1 μM Ionomycin, 5 μg/ml L-PHA and 1 mM Valproic Acid (Sigma, Saint Louis, Mo.); 500 ng/ml Cyclosporin A (Fluka/Sigma); 25 μM SP600125 (A.G. Scientific Int., San Diego, Calif.); and 20 μM Integrase Inhibitor (118-D-24).

latently infected cells = assay: IL-7+IL-2 induced viral reactivation in the presence of inhibitors; assay type: cell-based, human; settings: IL-7+IL-2 stimulation
Excerpt: Understanding the intracellular mediators of IL-7/IL-2 stimulation provides additional targets toward latent virus purging. Some of these mediators can be enzymes, such as kinases and phosphatases, which may be ameneable to agonistic or antagonistic drugs. It is also important to know the IL-7/IL-2 signaling because, as noted herein, this pathway is the basis for homeostatic proliferation of memory cells, where an important proportion of proliferating cells are not inducing viral reactivation.
IL-7 stimulation induces activation of p38MAPK (a noncanonical IL-7 dependent pathway). […] Therefore, p38α is also a mediator for reactivation via IL-7.

p38α MAPK = settings: cited from earlier work
[1] = tested on: Latently infected cells (DHIV-infected NP cells); assay: HIV-1 reactivation in latently infected NP cells by signaling agonists (intracellular p24 Gag, flow cytometry); assay type: cell-based, human; settings: agonist 3 days at the concentration of b193; for ability of agonist to reactivate viral gene expression (in words): p24 Gag+ cells
Protocol: as §1
To complement the inhibitor studies, additional experimentation was conducted using agonists for the above signaling pathways. Latently infected cells were either left untreated or incubated with agonist. As a positive control, cells were treated with αCD3/CD28. The ability of the agonist to promote viral reactivation was then evaluated by detection of intracellular p24^Gag as shown above (FIG. 4). Phytohemagglutinin (PHA), a lectin that binds non-specifically to carbohydrate moieties on surface glycoproteins and acts as a potent polyclonal mitogen for T cells, was the first to be tested.
as §2

[2] = tested on: Jurkat latently infected cells; settings: Jurkat cell line; cited from earlier work
[3] = tested on: tumor cell lines harboring integrated, latent HIV-1; settings: through the activation of NFκB; cited from earlier work
[4] = tested on: Latently infected cells (DHIV-infected NP cells); assay: PHA-mediated HIV-1 reactivation in the presence of inhibitors (intracellular p24 Gag); assay type: cell-based, human
Protocol: To assess intracellular p24-gag expression, 5×10^5 cells were fixed and permeabilized with Citofix/Cytoperm during 30 min at 4° C. […] Cells were washed with Perm/Wash Buffer (BD Biosciences) and stained with 1:40 dilution of anti-p24 antibody (AG3.0) in 100 μl of Perm/Wash Buffer during 30 min at 4° C. Cells were washed with Perm/Wash Buffer and incubated with 1:100 Alexa Fluor 488 goat anti-mouse IgG (H+L) in 100 μl of Perm/Wash Buffer during 30 min at 4° C. Cells were washed with Perm/Wash Buffer and samples were analyzed by flow cytometry. Forward versus side scatter plots were used to define the live population. In all the experiments, HIV p24-gag staining regions were set with uninfected cells treated in parallel.
For inhibition studies, cells were preincubated with the indicated inhibitor for 2 hr before stimulation (See Supplementary Methods on line for the concentration of each inhibitor or activator). […]

[5] = inhibitor at the concentration of b193

In the case of `CN1CCCC1CCn1cc(C2=C(c3c[nH]c4ccccc34)C(=O)NC2=O)c2ccccc21` (stereo not shown) [BIM, bisindolylmaleimide II], the “effect of inhibitor on viral reactivation (in words)” value (DHIV-infected NP cells; [5]) is reported as “None of these three compounds had a negative effect on viral reactivation”.
In the case of `COc1cccc(-c2cc(=O)c3ccccc3o2)c1N` [PD98059], the “effect of inhibitor on viral reactivation (in words)” value (DHIV-infected NP cells; [5]) is reported as “Neither SP600125 nor PD98059 inhibited viral reactivation”.
For `C[S+]([O-])c1ccc(-c2nc(-c3ccncc3)c(-c3ccc(F)cc3)[nH]2)cc1` (stereo not shown) [SB203580], the inhibition of reactivation (DHIV-infected NP cells) is listed as “about 66%”, the “effect of inhibitor on reactivation by IL-7+IL-2 (in words)” value (latently infected cells) is listed as “can block reactivation” and the “effect on IL-7 induced proliferative response (in words)” value (p38α MAPK) is listed as “abrogated the proliferative response”.
For `CC(=O)O[C@@]12C[C@@H](C)[C@@]3(O)[C@@H](C=C(CO)C[C@]4(O)C(=O)C(C)=C[C@@H]34)[C@@H]1C2(C)C` [prostratin], the “ability of agonist to reactivate viral gene expression (in words)” value (“ability of agonist” for short) [1] was “Neither compound was able to reactivate viral gene expression; also recorded: failed to induce any degree of reactivation”.
In the case of `Cn1c2ccccc2c2c3c(c4c5ccccc5n(CCC#N)c4c21)CNC3=O` [Gö6976], the “effect of inhibitor on viral reactivation (in words)” value (DHIV-infected NP cells; [5]) is reported as “None of these three compounds had a negative effect on viral reactivation”.
For `CCCC(CCC)C(=O)O` [VA, valproic acid], the “ability of agonist” value [1] was “failed to reactivate viral gene expression” and the “ability of agonist” value ([1]; listed as Valproic acid) was “incapable of inducing viral reactivation”.
With `Cc1oncc1C(=O)Nc1ccc(C(F)(F)F)cc1` [Leflunomide] the “effect of inhibitor on viral reactivation (in words)” value (DHIV-infected NP cells; [5]) was “failed to block viral reactivation” and the “effect of inhibitor on viral reactivation (in words)” value (DHIV-infected NP cells; inhibitor at the concentration of b193, listed as lefluonomide) was “does not block reactivation in memory cells”.
For Phytohemagglutinin [PHA], the “ability of agonist” value [1] was “induced reactivation almost as efficiently as αCD3/CD28 treatment” and the reactivation efficiency ([1]; relative to αCD3/CD28, formula) was 79%.
With `C[C@H](CCC(=O)O)C[C@H](C)C[C@H](C)C(=O)/C=C(\O)[C@H](C)C[C@H](C)C/C=C/[C@@H](C)[C@@H](O)[C@@H](C)[C@@H](O)C[C@@H]1CC[C@@](C)([C@H]2CC[C@@](C)([C@@H](C)O)O2)O1` [lonomycin, Ionomycin] the “ability of agonist” value [1] was “had no effect on viral reactivation; also recorded: produced no detectable reactivation”.
For `CCCCCCCCCCCCCC(=O)O[C@@H]1[C@@H](C)[C@@]2(O)[C@@H](C=C(CO)C[C@]3(O)C(=O)C(C)=C[C@@H]23)[C@@H]2C(C)(C)[C@]12OC(C)=O` [PMA, phorbol 12-myristate 13-acetate], the “ability of agonist” value [1] is given as “Neither compound was able to reactivate viral gene expression; also recorded: failed to induce any degree of reactivation; also recorded: failed to induce any detectable reactivation” and the “reactivation of latent viruses (in words)” value [2] is given as “Reactivation of these latent viruses was accomplished”.
For TNF-α, the “induction of viral gene expression (in words)” value [3] is given as “can induce viral gene expression”, the “ability of agonist” value [1] is given as “failed to induce any degree of viral gene expression; also recorded: failed to induce any degree of reactivation; also recorded: failed to induce any detectable reactivation” and the “reactivation of latent viruses (in words)” value [2] is given as “Reactivation of these latent viruses was accomplished”.
For `CC(C)(C)n1nc(-c2ccc(Cl)cc2)c2c(N)ncnc21` [PP2], the “viral reactivation with PHA in the presence of inhibitor (reactivation efficiency)” value ([4]; PHA stimulation co-incubated with inhibitor, relative to αCD3/CD28) was 3%, the “effect of inhibitor on reactivation by PHA (in words)” value ([4]; PHA stimulation plus inhibitor) was “completely blocked reactivation by PHA” and the inhibition of reactivation (DHIV-infected NP cells) was “about 96%”.
With `CC(=O)c1c(O)c(C)c(O)c(Cc2c(O)c3c(c(C(=O)/C=C/c4ccccc4)c2O)OC(C)(C)C=C3)c1O` [Rottlerin] the “effect of inhibitor on viral reactivation (in words)” value (DHIV-infected NP cells; [5]) was “None of these three compounds had a negative effect on viral reactivation”.
Work on `Oc1ccc(-c2nc(-c3ccncc3)c(-c3ccc(F)cc3)[nH]2)cc1` [SB202190] yielded an inhibition of reactivation (DHIV-infected NP cells) of 66%.
With `O=S(=O)(NCCNC/C=C/c1ccc(Br)cc1)c1cccc2cnccc12` [H-89] the “effect of inhibitor on viral reactivation (in words)” value (DHIV-infected NP cells; [5]) was “did not have any effect on viral reactivation”.
